The values that follow come from PubChem BioAssay AID1645864 (Buhrlage Lab, Dana-Farber Cancer Institute and Novartis …, 2021).

Molecules are shown by their SMILES. Calls of active or inactive are those of the source.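 How the source made its calls: active means maximal inhibition of USP17 at or above 30% in the confirmation dose-response, a value not among the printed readouts; inactive means the rest.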

Chain of Ubiquitin carboxyl-terminal hydrolase 17-like protein 5 (Homo sapiens) (A8MUK1 whole entry, looked up): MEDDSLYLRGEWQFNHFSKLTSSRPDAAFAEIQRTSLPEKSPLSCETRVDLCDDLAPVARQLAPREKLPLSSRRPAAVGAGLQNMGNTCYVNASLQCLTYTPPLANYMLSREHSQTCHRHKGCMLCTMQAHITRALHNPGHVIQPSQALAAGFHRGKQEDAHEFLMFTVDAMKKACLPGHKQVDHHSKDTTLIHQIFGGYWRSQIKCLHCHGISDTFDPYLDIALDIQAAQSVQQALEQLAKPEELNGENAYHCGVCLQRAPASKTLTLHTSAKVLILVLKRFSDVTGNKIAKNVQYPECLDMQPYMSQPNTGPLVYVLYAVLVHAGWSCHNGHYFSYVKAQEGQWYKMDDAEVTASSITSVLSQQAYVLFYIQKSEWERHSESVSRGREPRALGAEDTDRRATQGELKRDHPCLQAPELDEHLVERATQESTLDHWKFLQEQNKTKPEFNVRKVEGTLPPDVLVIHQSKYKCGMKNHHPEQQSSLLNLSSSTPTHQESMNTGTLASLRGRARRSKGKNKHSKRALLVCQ

The test has as its target Ubiquitin carboxyl-terminal hydrolase 17-like protein 5 (Homo sapiens) (UniProt A8MUK1). Briefly: ubiquitin-specific protease 17 inhibitors, concentration series, biochemical, verification of primary actives (AID 1645864). The conditions noted are these: purified USP17, ubiquitin-rhodamine cleavage fluorescence, 3 h.
Regarding `O=C(Nc1cccc2ccccc12)C1CCCN(S(=O)(=O)Cc2ccccc2)C1` (stereo not given), the IC50 is 8.53 µM.

Consider `COc1ccc(C2CC(c3ccc(C)cc3)N(C(=O)C3CC3)c3ncnn32)cc1` (stereo not given), for which the IC50 is > 50 µM (inactive). The same measure for `C=C(NC(=O)C(=C)NC(=O)c1csc(-c2ccc3c(n2)-c2csc(n2)-c2csc(n2)C(C(C)C2CO2)NC(=O)C(Cc2ccc(O)cc2)NC(=O)c2csc(n2)C(C(O)c2ccccc2)NC(=O)c2nc(sc2C)C(CC(N)=O)NC(=O)c2csc-3n2)n1)C(=O)O` (stereo not given): 26.7 µM. With `Cc1sc2ccn(C)c(=O)c2c1C(=O)NC1CCCC1` the figure was 3.48 µM; with `COc1ccc(CNC(=O)Nc2cccc3ccccc23)cc1`, 9.93 µM. The same measure for `O=C(NCCc1ccccn1)c1cc(-c2ccc(Br)cc2)n[nH]1`: 17.9 µM; for `COc1ccc2[nH]cc(S(=O)(=O)c3ccc(C)c(F)c3)c(=O)c2c1`: 48 µM.

For `C/C1=C\CCC(C)C(O)CC(O)C(C)C(O)CCC(C)C(O)CC2(O)OC(CC(OC(=O)CC(=O)O)CC(O)CC(O)CC(O)C(C)C(O)/C=C/C(C)C(C(C)CCCCCCCCN=C(N)N)OC1=O)CC(O)C2O` (stereo not given), the IC50 is > 50 µM (inactive). The same measure for `CC1CC(=O)N(Cc2ccc([N+](=O)[O-])cc2)c2ccccc2S1` (stereo not given): > 50 µM (inactive); for `Cc1nc2cccnc2n1C1CCN(C(=O)c2cc3cc(Cl)ccc3[nH]2)C1` (stereo not given): > 50 µM (inactive). The same measure for `Cc1noc(C)c1S(=O)(=O)Nc1ccc(C(=O)Nc2ccc3c(c2)OCCO3)cc1`: > 50 µM (inactive); for `COc1ccc2cc3c(nc2c1)OC(=O)N(CCc1cccc(F)c1)C3`: 0.0729 µM. The same measure for `COc1ccc(NC(=O)c2ccnc(Nc3ccc(OC)cc3)c2)cc1`: 42.4 µM. On to `COc1ccc(NC(=O)C2c3ccccc3C(=O)N(C3CCCC3)C2c2cccs2)cc1OC` (stereo not given), for which the concentration for half-maximal inhibition (IC50) is 47.1 µM. With `Cc1noc(NS(=O)(=O)c2ccc(NC(=O)CSc3ccc4ccccc4c3)cc2)c1C` the figure was > 50 µM (inactive); with `Cc1cc(-c2nnc(SCC(=O)Nc3ccc(Br)c(C)c3)n2N)n[nH]1`, 18.7 µM; with `O=C(Nc1ccccc1Sc1ncc(-c2ccc(Cl)cc2)cn1)c1ccco1`, 5.78 µM. With `c1cnc(-c2n[nH]c(C3CCN(C4CCNC4)CC3)n2)cn1` (stereo not given) the figure was > 50 µM (inactive). With `O=c1c2c(ccn1Cc1cc(F)ccc1F)ccn2Cc1cccnc1` the figure was > 50 µM (inactive). For the molecule `O=C(c1cc(-c2ccncc2)n[nH]1)N1CCC(C(=O)N2CC=C(c3ccccc3)CC2)CC1`, the IC50 is 28.1 µM. With `CC1(C)CC(n2[nH]c(=O)c3c2NC(=O)CSC3c2ccc(OCc3ccccc3)cc2)CCO1` (stereo not given) the figure was 21 µM; with `NS(=O)(=O)c1ccc(CNS(=O)(=O)c2ccc(-c3ccccn3)s2)cc1`, 23.2 µM; with `O=C(Cn1nc2ccc(C(=O)NCc3ccccc3)cn2c1=O)Nc1ccc2c(c1)OCO2`, 45.1 µM. The same measure for `CN(CCCNC(=O)c1cccc2c1SCCC2=O)c1ccccc1`: > 50 µM (inactive); for `CC(C)CCN1C(=O)C2C(C(=O)Nc3ccc(Oc4ccccc4)cc3)C3C=CC2(O3)C1C(=O)NC1CCCCC1` (stereo not given): 34 µM. For `CC1CCN(S(=O)(=O)c2ccc3[nH]cc(C(=O)NCc4ccco4)c(=O)c3c2)CC1`, the IC50 was > 50 µM (inactive). The same measure for `CC1CC[C@]2(NC1)O[C@H]1C[C@H]3[C@@H]4CC[C@H]5C[C@@H](O[C@@H]6O[C@H](CO)[C@H](O[C@@H]7O[C@H](CO)[C@@H](O)[C@H](O[C@@H]8OC[C@@H](O)[C@H](O)[C@H]8O)[C@H]7O[C@@H]7O[C@H](CO)[C@@H](O)[C@H](O)[C@H]7O)[C@H](O)[C@H]6O)CC[C@]5(C)[C@H]4CC[C@]3(C)[C@H]1[C@@H]2C` (stereo not given in full): 40 µM.

Consider `O=C(Nc1ccncc1)c1ncoc1-c1cccc(Cl)c1`, for which the IC50 was > 50 µM (inactive). The same measure for `Cc1cc(C)cc(NC(=O)CN2C(=O)CC(c3ccccc3)Sc3ccccc32)c1` (stereo not given): > 50 µM (inactive); for `O=C(Cn1c(=O)n(CC(=O)NC2CCCC2)c(=O)c2ccccc21)Nc1cc(Cl)ccc1Cl`: 4.66 µM. The same measure for `CC(=O)c1cc2c(=O)c3c(C(=O)O)c(O)c(O)cc3oc2c(C(C)=O)c1-c1coc2cc(O)c(O)c(C(=O)O)c2c1=O`: 0.49 µM; for `CCCN1C=NS(=O)(=O)c2cc(C(=O)Nc3ccc(OC)c(Cl)c3)ccc21`: 40.9 µM; for `O=C(NC1CCCCC1)c1cc2c(cn1)[nH]c1ccccc12`: > 50 µM (inactive). The same measure for `O=C(Cn1cc(C(=O)C(F)(F)F)c2ccccc21)N1CCc2ccccc21`: 3.5 µM; for `Cc1ccccc1NC(=O)c1ccc(N2CCCCC2)nn1`: > 50 µM (inactive). Turning to `Cn1cc(-c2cnc(-c3cccc(F)c3)nc2)cc1C(=O)NCc1cccnc1`, the IC50 was 37.8 µM. With `COc1cccc(-n2c(=O)[nH]c3c(C(N)=O)nc(-c4ccc(OCc5ccccc5)cc4)nc32)c1` the figure was > 50 µM (inactive); with `Cc1noc(-c2cc(=O)n(CC(=O)NCc3ccccc3)c3ccccc23)n1`, 45.6 µM; with `Cc1ccc(O)c(-c2cc(C(=O)Nc3ccccc3Cl)[nH]n2)c1`, 8.32 µM. `N#Cc1ccccc1COC(=O)c1ccc2ccccc2n1`: the IC50 is > 50 µM (inactive). With `O=C(NCc1ccc2c(c1)OCO2)c1nn(C23CC4CC(CC(C4)C2)C3)cc1[N+](=O)[O-]` the figure was > 50 µM (inactive); with `CCCC(=O)Nc1nc2ccc(CCC(=O)NCc3ccc(F)cc3)cc2s1`, 25 µM. With `O=C(NCc1ccccc1)c1ccc(-c2ccc(N3CCCC3)nn2)cc1` the figure was > 50 µM (inactive). The same measure for `O=C1CN(C(=O)COC(=O)CCCN2C(=O)c3cccc4cccc(c34)C2=O)c2ccccc2N1`: 49.3 µM; for `Cc1ccc2c(c1)[C@]1(C(=O)N2)[C@@H](C(=O)c2ccccc2)[C@]2(C(=O)Nc3ccccc32)[C@@H]2CCCN21`: 32 µM. For `CC1=C(c2ccc(F)cc2)S(=O)(=O)NC1=NCC(=O)Nc1ccc(F)cc1`, the IC50 was 40.6 µM.

As to `O=C(CCCCn1c(=O)c2ccccc2n(Cc2ccccc2F)c1=O)NCCc1ccccc1`, the IC50 is 16.8 µM. Take `Cc1ccc(NC(=O)Cc2nnc3cc(-c4nc(C)no4)ccn23)cc1`: the IC50 was 18.7 µM. The same measure for `COc1ccc(OC)c(-c2cc(C(=O)Nc3c(C)nn(Cc4ccccc4)c3C)no2)c1`: > 50 µM (inactive). The same measure for `CCCc1c(C(=O)O)c(O[C@H]2O[C@H](C)[C@@H](OC)[C@H](OC)[C@@H]2OC)cc2cc3c(c(O)c12)C(=O)c1c(O)cc(O[C@@H]2O[C@@H](C)[C@H](O[C@H]4O[C@H](C)[C@@H](OC)[C@H](OC)[C@@H]4O)[C@@H](OC)[C@H]2O)cc1C3=O`: > 50 µM (inactive); for `CC1CCc2sc(NC(=O)c3ccccc3Oc3ccccc3)c(C(N)=O)c2C1` (stereo not given): 6.96 µM. For the molecule `COc1cc2c(oc(=O)c3cc(C)cc(OC)c32)c2c([C@@H]3OC(C)[C@@H](O)[C@@](C)(O)C3O)ccc(O)c12` (stereo not given in full), the IC50 was 24.4 µM. With `CCOc1ccc2[nH]c(=O)c(CN(C(=O)c3cccs3)C3CCCC3)cc2c1` the figure was 11.1 µM; with `CCOC(=O)c1ccc(NC(=O)COc2cccc3c2CCN(CC)C3=O)cc1`, > 50 µM (inactive); with `O=[N+]([O-])c1ccc2c(c1)nc1n2CCN(Cc2ccco2)C1`, > 50 µM (inactive).

For `Cc1ccc(NC(=O)CCC(=O)Nc2ccc3nc(N4CCCCC4)cc(C)c3c2)c(Br)c1`, the IC50 was 49.7 µM. The same measure for `Cn1c(-c2nnc(SCC(=O)Nc3ccccc3F)o2)cc2ccccc21`: 21.3 µM. For `COc1cccc(N2CCN(C(=O)c3cc(NC(C)=O)cc4nc(C)ccc34)CC2)c1`, the IC50 was > 50 µM (inactive). With `COc1ccc(C)cc1NC(=O)C(NS(=O)(=O)c1ccc2c(c1)CCN2C(C)=O)C(C)C` (stereo not given) the figure was > 50 µM (inactive); with `CC(=O)c1cccc(NC(=O)c2ccc3[nH]c4c(c3c2)CC(C)CC4)c1` (stereo not given), > 50 µM (inactive); with `Cc1noc(-c2cccn(Cc3cccc(C(F)(F)F)c3)c2=O)n1`, > 50 µM (inactive).

In the case of `Cc1cc(O)cc2cc3c(c(O)c12)C(=O)CCC3O` (stereo not given), the IC50 is > 50 µM (inactive). With `O=C(NCc1ccc(Br)cc1)c1ccc(-c2cccnc2)nc1`, the 50% inhibitory concentration (IC50) was 37.5 µM. The same measure for `CC(C)(C)C(=O)Nc1ccc(C(=O)Nc2cccc(-c3nnc(-c4ccccc4)o3)c2)cc1`: 5.27 µM; for `O=C(CC1C(=O)N(Cc2ccccc2)c2nc3ccccc3n21)NCCc1ccccc1` (stereo not given): 18.7 µM; for `O=C1N(Cc2ccc(F)cc2)CCN1c1ccc2c(c1)CCC2`: > 50 µM (inactive). With `COc1ccc(C(=O)Nc2cc3c4c(c2)C(C)C(=O)N4CCC3)cc1` (stereo not given) the figure was > 50 µM (inactive); with `O=C(c1cnccn1)N1CCc2[nH]c3ccc(F)cc3c2C1`, > 50 µM (inactive); with `Cc1cccc(NC(=O)c2nn(C)c3ccccc3c2=O)c1`, 27.1 µM. With `CCOC(=O)c1c(C)oc2nc(CSc3ccccc3)[nH]c(=O)c12` the figure was > 50 µM (inactive). Consider `COc1ccc(NC(=O)Cn2cc(C(=O)c3ccc(C)cc3)c(=O)c3ccccc32)cc1`, for which the IC50 was 1.98 µM. The same measure for `O=C1Nc2c(Cl)cc(Cl)cc2C1(O)c1sc(NC2CCCCC2)nc1-c1ccccc1` (stereo not given): 30.9 µM; for `CC(Nc1ncnc2c1sc1nc(N3CCOCC3)c3c(c12)CCC3)c1ccccc1` (stereo not given): 5.33 µM. With `Cc1cccc(C(=O)Nc2cccc(SC(C(=O)Nc3ccc(Cl)c(C(=O)O)c3)c3ccccc3)c2)c1` (stereo not given) the figure was 15.2 µM; with `COc1ccc(C2SCC(=O)Nc3c2c(=O)[nH]n3C2CCCCCC2)cc1` (stereo not given), 33.5 µM. With `Cc1cc(=O)n(C)c2c(O)c3c(cc12)c(C)cc(=O)n3C` the figure was 0.155 µM; with `O=C(Nc1nnc2n1CCCS2)c1cccc(Cl)c1`, > 50 µM (inactive); with `CCc1ccc(C2c3c(oc4ccccc4c3=O)C(=O)N2c2nncs2)cc1` (stereo not given), > 50 µM (inactive). Turning to `Fc1ccc(Oc2nc(CN3CCOCC3)nc3sc4c(c23)CCCC4)c(Cl)c1`, the IC50 was > 50 µM (inactive).

As for `COc1cccc2cccc(O)c12`, the IC50 was > 50 µM (inactive).
